Results published in ChEMBL document CHEMBL1147626, “Determination of the stable conformation of GABA(A)-benzodiazepine receptor bivalent ligands by low temperature NMR and X-ray analysis” (Bioorg Med Chem Lett, 2004).

Biological target: T1, GABA-A receptor; alpha-3/beta-3/gamma-2 (Homo sapiens, UniProt P18507+P28472+P34903)
T1 sequence (P18507 whole entry): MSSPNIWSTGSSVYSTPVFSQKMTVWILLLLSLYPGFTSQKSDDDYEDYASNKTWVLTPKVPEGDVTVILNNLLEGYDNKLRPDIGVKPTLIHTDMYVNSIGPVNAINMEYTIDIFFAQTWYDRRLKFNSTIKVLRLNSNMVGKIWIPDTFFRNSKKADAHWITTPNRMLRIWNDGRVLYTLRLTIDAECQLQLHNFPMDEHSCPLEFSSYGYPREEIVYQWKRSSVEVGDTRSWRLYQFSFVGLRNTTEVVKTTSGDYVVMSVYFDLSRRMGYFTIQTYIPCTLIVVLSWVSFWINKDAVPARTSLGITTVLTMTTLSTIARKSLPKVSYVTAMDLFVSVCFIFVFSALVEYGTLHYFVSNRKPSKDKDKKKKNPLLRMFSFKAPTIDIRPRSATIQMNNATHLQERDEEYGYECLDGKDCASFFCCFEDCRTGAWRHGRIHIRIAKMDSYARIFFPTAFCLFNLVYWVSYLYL
T1 sequence (P28472 whole entry): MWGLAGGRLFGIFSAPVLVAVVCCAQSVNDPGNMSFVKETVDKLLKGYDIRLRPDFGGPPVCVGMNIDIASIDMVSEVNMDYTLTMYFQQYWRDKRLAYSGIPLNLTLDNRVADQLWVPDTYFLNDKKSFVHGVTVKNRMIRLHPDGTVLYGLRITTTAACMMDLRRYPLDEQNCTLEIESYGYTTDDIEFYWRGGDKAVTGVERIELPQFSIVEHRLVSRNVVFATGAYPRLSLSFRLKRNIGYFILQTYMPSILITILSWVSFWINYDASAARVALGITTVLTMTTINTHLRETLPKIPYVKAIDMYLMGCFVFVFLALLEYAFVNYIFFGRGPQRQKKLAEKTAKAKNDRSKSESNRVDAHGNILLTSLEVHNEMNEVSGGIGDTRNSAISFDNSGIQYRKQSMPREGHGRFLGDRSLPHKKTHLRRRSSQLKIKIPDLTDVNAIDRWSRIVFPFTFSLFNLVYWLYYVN
T1 sequence (P34903 whole entry): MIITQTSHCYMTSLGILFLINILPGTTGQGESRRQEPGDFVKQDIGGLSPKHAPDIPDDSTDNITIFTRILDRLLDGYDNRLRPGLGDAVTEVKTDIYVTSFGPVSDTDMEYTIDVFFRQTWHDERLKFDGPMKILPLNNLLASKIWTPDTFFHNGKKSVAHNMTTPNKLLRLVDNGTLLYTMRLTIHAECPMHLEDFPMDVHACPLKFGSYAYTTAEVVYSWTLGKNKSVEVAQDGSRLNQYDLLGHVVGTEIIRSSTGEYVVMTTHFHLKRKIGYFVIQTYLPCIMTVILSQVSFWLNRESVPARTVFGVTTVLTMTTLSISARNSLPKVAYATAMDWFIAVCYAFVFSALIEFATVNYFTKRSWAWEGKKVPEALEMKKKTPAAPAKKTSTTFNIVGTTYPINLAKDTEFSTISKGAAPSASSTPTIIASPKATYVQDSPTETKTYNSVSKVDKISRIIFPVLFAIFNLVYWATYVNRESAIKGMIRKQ
Test: In vitro inhibition of [3H]-Ro- 15-1788 binding to human GABA-A receptor alpha-3-beta-3-gamma-2 subunits expressed in L(tk-)cells
Format: cell-based

## C#Cc1ccc2c(c1)C(=O)N(C)Cc1c(C(=O)OCCCOC(=O)c3ncn4c3CN(C)C(=O)c3cc(C#C)ccc3-4)ncn1-2
  Ki: 858 nM
